Values of other authors in US20150335679A1, “Methods and Compositions for Treating Malignancies with Dendritic Cells” (Kiromic, LLC, priority 2014, published 2015).
Like-named read-outs stand apart in the source and are kept apart here.

Legend:
Treg = details: low-dose
[1] = tested on: Tregs; breast tumor-reactive T cells
[2] = 50 mg orally daily for 3 months

For `O=P1(N(CCCl)CCCl)NCCCO1` (stereo not drawn) [CYP, cyclophosphamide], the “Treg number and functionality” value (Treg) is given as “decreases”, the Treg suppressor function (Tregs; 250 mg/m^2) is given as “impaired suppressor function” and the “duration of decreased Treg frequency” value (Tregs; 250 mg/m^2) is given as “decreased Treg frequency up to day 71”. For the same molecule, the “Alpha-fetoprotein-specific T-cell responses” value (Tregs; lower treatment arms) was “induced”, the “absolute and relative frequency of Tregs in the blood of patients” value (Tregs; the two lower doses (150, 250 mg/m^2)) was “induced a decrease” and the “course of Tregs” value [1, 2] was “remained decreased until day 42, returning to pretreatment levels by day 84”. For the same molecule, the “time to reduction of Tregs” value [1, 2] was no more than 14 days, the “patients with endogenous breast tumor-reactive T cells” value ([1]; day 14, 27% before CYP treatment) was 73% and the “patients with endogenous breast tumor-reactive T cells” value ([1]; day 42) was 80%. The “patients with endogenous breast tumor-reactive T cells” value ([1]; day 84) was 88%, the “rates of disease control” value (advanced solid tumors; all CYP regimens (oral 50 mg/day, single i.v. 1,000 mg, or both) vs adenovirus only) was “higher rates of disease control” and the “decrease of Treg numbers” value (advanced solid tumors; metronomic groups) was “most effective in decreasing Treg numbers”.
